Experimental data reported in ChEMBL document CHEMBL5244218, “Quinolone derivatives and their activities against methicillin-resistant Staphylococcus aureus (MRSA)” (Eur J Med Chem, 2018).
Converted amounts (≈) assume the structure as drawn.

Experiments:
Staphylococcus aureus [1] = experiment: Antimicrobial activity against methicillin-resistant Staphylococcus aureus Mi339 by microbroth dilution method; type: functional
Staphylococcus aureus [2] = experiment: Antimicrobial activity against methicillin-resistant Staphylococcus aureus Mi300 by microbroth dilution method; type: functional
Staphylococcus aureus [3] = experiment: Antimicrobial activity against methicillin-resistant Staphylococcus aureus assessed as inhibition of bacterial growth by agar dilution method; type: functional
Staphylococcus aureus [4] = experiment: Antibacterial activity against methicillin-resistant Staphylococcus aureus infected in mouse model assessed as reduction in log10CFU in lungs (reference value: 8.47 log10CFU); type: functional
Staphylococcus aureus [5] = experiment: Antimicrobial activity against methicillin-resistant Staphylococcus aureus MR101 Mu50 measured after 18 hrs by microplate dilution method; type: functional
Staphylococcus aureus [6] = experiment: Antibacterial activity against methicillin-resistant Staphylococcus aureus infected in mouse model assessed as increase in survival rate relative to control; type: functional
Staphylococcus aureus [7] = experiment: Potency index, ratio of norfloxacin MIC to test compound MIC for antimicrobial activity against methicillin-resistant Staphylococcus aureus; type: functional
Staphylococcus aureus [8] = experiment: Antibacterial activity against methicillin-resistant Staphylococcus aureus; type: functional
Staphylococcus aureus [9] = experiment: Antimicrobial activity against community acquired methicillin-resistant Staphylococcus aureus incubated for 24 hrs by CLSI protocol based method; type: functional
Staphylococcus aureus [10] = experiment: Antimicrobial activity against hospital acquired methicillin-resistant Staphylococcus aureus incubated for 24 hrs by CLSI protocol based method; type: functional
Staphylococcus aureus [11] = experiment: Potency index, ratio of ciprofloxacin MIC to test compound MIC for antimicrobial activity against methicillin-resistant Staphylococcus aureus clinical isolate 1; type: functional
Staphylococcus aureus [12] = experiment: Potency index, ratio of ciprofloxacin MIC to test compound MIC for antimicrobial activity against methicillin-resistant Staphylococcus aureus clinical isolate 2; type: functional
Staphylococcus aureus [13] = experiment: Antimicrobial activity against methicillin-resistant Staphylococcus aureus clinical isolate 2 measured after 18 hrs by agar dilution method; type: functional
Staphylococcus aureus [14] = experiment: Antimicrobial activity against methicillin-resistant Staphylococcus aureus clinical isolate 1 measured after 18 hrs by agar dilution method; type: functional
Staphylococcus aureus [15] = experiment: Potency index, ratio of norfloxacin MIC to test compound MIC for antimicrobial activity against methicillin-resistant Staphylococcus aureus clinical isolate 1; type: functional
Staphylococcus aureus [16] = experiment: Potency index, ratio of norfloxacin MIC to test compound MIC for antimicrobial activity against methicillin-resistant Staphylococcus aureus clinical isolate 2; type: functional
Staphylococcus aureus [17] = experiment: Antimicrobial activity against fluoroquinolone-resistant Staphylococcus aureus assessed as inhibition of bacterial growth at 0.5 ug/ml relative to control; type: functional; design: scale not given: the % may be the effect or the level left; settings: dose 0.5 µg/ml
Staphylococcus aureus [18] = experiment: Antimicrobial activity against methicillin-resistant Staphylococcus aureus assessed as inhibition of bacterial growth at 0.5 ug/ml relative to control; type: functional; design: scale not given: the % may be the effect or the level left; settings: dose 0.5 µg/ml
[19] = Cytotoxicity against human HEK293 cells incubated for 72 hrs by MTT assay; type: toxicity, cell-based
[20] = Cytotoxicity against African green monkey Vero cells; type: toxicity, cell-based; settings: chlorocebus sabaeus
Staphylococcus aureus [21] = experiment: Antimicrobial activity against methicillin-resistant Staphylococcus aureus; type: functional, organism-based
Staphylococcus aureus [22] = experiment: Antimicrobial activity against methicillin-resistant Staphylococcus aureus by agar dilution method; type: functional
Staphylococcus aureus [23] = experiment: Antimicrobial activity against methicillin-resistant Staphylococcus aureus assessed as inhibition of microbial growth at 15.63 ug/ml relative to control; type: functional; design: scale not given: the % may be the effect or the level left; settings: dose 15.63 µg/ml
[24] = Permeability coefficient of compound; type: ADME; settings: not told; read-out: Kp (converted)
Staphylococcus aureus [25] = experiment: Potency index, ratio of ciprofloxacin MIC to test compound MIC for antimicrobial activity against methicillin-resistant Staphylococcus aureus; type: functional
Staphylococcus aureus [26] = experiment: Antimicrobial activity against methicillin-resistant Staphylococcus aureus assessed as inhibition of microbial growth; type: functional
Staphylococcus aureus [27] = experiment: Bactericidal activity against methicillin-resistant Staphylococcus aureus assessed as inhibition of microbial growth; type: functional
Staphylococcus aureus [28] = experiment: Antibacterial activity against methicillin-resistant Staphylococcus aureus assessed as inhibition of microbial growth; type: functional
Staphylococcus aureus [29] = experiment: Antimicrobial activity against methicillin-resistant Staphylococcus aureus incubated for 18 hrs by Alamar blue staining based analysis; type: functional

## C[C@@H](O)[C@H]1C(=O)N2C(C(=O)O)=C(COC(=O)N3CCN(c4cc5c(cc4F)c(=O)c(C(=O)O)cn5C4CC4)CC3)S[C@H]12
Staphylococcus aureus [1]
  MIC: 0.06 µg/mL (≈ 0.0996 µM)
Staphylococcus aureus [2]
  MIC: 0.06 µg/mL (≈ 0.0996 µM)

## C[C@H]1CCc2c(N3CCC(O)CC3)c(F)cc3c(=O)c(C(=O)O)cn1c23.N=C(N)NCCC[C@H](N)C(=O)O.O.O.O.O
Staphylococcus aureus [3]
  MIC: 1 µg/mL

## CC(=O)N[C@@H]1[C@H](Oc2c3cc4cc2Oc2ccc(cc2Cl)[C@@H](O[C@@H]2O[C@@H](CO)[C@@H](O)[C@H](O)[C@@H]2NC(C)=O)[C@@H]2NC(=O)[C@H](NC(=O)[C@@H]4NC(=O)[C@H]4NC(=O)[C@@H](Cc5ccc(c(Cl)c5)O3)NC(=O)[C@H](N)c3ccc(O)c(c3)Oc3cc(O)cc4c3)c3ccc(O)c(c3)-c3c(O[C@H]4O[C@H](CO)[C@@H](O)[C@@H](O)[C@@H]4O)cc(O)cc3[C@@H](C(=O)O)NC2=O)O[C@@H](CO)[C@@H](O)[C@@H]1O
Staphylococcus aureus [4]
  Activity: 7.36 log10CFU
Staphylococcus aureus [5]
  MIC: 0.5 µg/mL (≈ 0.283 µM)
Staphylococcus aureus [6]
  Activity: 45%

## CCOC(=O)c1cn(CC(O)Cn2cncn2)c2c(Cl)cc(Cl)cc2c1=O (centres undefined)
Staphylococcus aureus [7]
  Ratio: 8
Staphylococcus aureus [8]
  MIC: 1 µg/mL (≈ 2.43 µM)

## O=C(O)c1cn(CC(O)Cn2cncn2)c2ccc(F)cc2c1=O (centres undefined)
Staphylococcus aureus [7]
  Ratio: 8
Staphylococcus aureus [8]
  MIC: 1 µg/mL (≈ 3.01 µM)

## O=C(O)c1cn(CC(O)Cn2cncn2)c2cc(C(F)(F)F)ccc2c1=O (centres undefined)
Staphylococcus aureus [7]
  Ratio: 8
Staphylococcus aureus [8]
  MIC: 1 µg/mL (≈ 2.62 µM)

## Cc1c(N2CC(NC(C)C)C2)c(F)cc2c(=O)c(C(=O)O)cn(-c3nc(N)c(F)cc3F)c12
Staphylococcus aureus [9]
  MIC90: 0.06 µg/mL (≈ 0.13 µM)
Staphylococcus aureus [10]
  MIC90: 0.06 µg/mL (≈ 0.13 µM)

## O=C(O)c1cn(C2CC2)c2cc(N3CCN(C/C(=N/O)c4ccco4)CC3)c(F)cc2c1=O
Staphylococcus aureus [11]
  Ratio: 2
Staphylococcus aureus [12]
  Ratio: 2
Staphylococcus aureus [13]
  MIC: 0.19 µg/mL (≈ 0.418 µM)
Staphylococcus aureus [14]
  MIC: 0.19 µg/mL (≈ 0.418 µM)
Staphylococcus aureus [15]
  Ratio: 4
Staphylococcus aureus [16]
  Ratio: 4

## COc1c(N2CC[C@@H](C3(C)CC3)C2)c(F)cc2c(=O)c(C(=O)O)cn([C@@H]3C[C@@H]3F)c12
Staphylococcus aureus [17]
  Activity: 90%
Staphylococcus aureus [18]
  Activity: 90%

## O=C(O)c1cn(C2CC2)c2cc(N3CCN(C/C(=N/O)c4cccs4)CC3)c(F)cc2c1=O
Staphylococcus aureus [11]
  Ratio: 2
Staphylococcus aureus [12]
  Ratio: 2
Staphylococcus aureus [13]
  MIC: 0.19 µg/mL (≈ 0.404 µM)
Staphylococcus aureus [14]
  MIC: 0.19 µg/mL (≈ 0.404 µM)
Staphylococcus aureus [15]
  Ratio: 4
Staphylococcus aureus [16]
  Ratio: 4

## COc1ccc(Cn2c(-c3ccccc3O)nn(CN3CCN(c4c(F)cc5c(=O)c(C(=O)O)cn(C6CC6)c5c4Cl)CC3)c2=S)cc1
[19]
  EC50 at 72 h: 50.5 µM

## CO/N=C1\CCN(c2nc3c(cc2F)c(=O)c(C(=O)O)cn3C2CC2)CC1(C)CN (centres undefined)
[20]
  CC50: 177 µg/mL (≈ 423 µM)
Staphylococcus aureus [21]
  MIC: 8 µg/mL

## C[C@@H](O)[C@H]1C(=O)N2C(C(=O)O)=C(COC(=O)N[C@H]3CCC(c4c(F)cc5c(=O)c(C(=O)O)cn(C6CC6)c5c4F)C3)S[C@H]12 (some centres undefined)
Staphylococcus aureus [1]
  MIC: 4 µg/mL (≈ 6.46 µM)
Staphylococcus aureus [2]
  MIC: ≤ 0.06 µg/mL

## CNCC1(C)CN(c2nc3c(cc2F)c(=O)c(C(=O)O)cn3C2CC2)CC/C1=N\OC (centres undefined)
Staphylococcus aureus [22]
  MIC: 64 µg/mL (≈ 148 µM)

## CCOC(=O)c1cn(C2CC2)c2cc(N3CCNCC3)ccc2c1=O
Staphylococcus aureus [23]
  Activity: 80%
[24]
  Papp: 0.106 ×10⁻⁶ cm/s

## O=C(O)c1cn(C2CC2)c2c(Cl)c(N3CCN(Cn4nc(-c5ccccc5O)n(Cc5ccc(F)cc5)c4=S)CC3)c(F)cc2c1=O
[19]
  EC50 at 72 h: 50.5 µM

## CCCOC(=O)c1cn(C2CC2)c2cc(N3CCNCC3)ccc2c1=O
Staphylococcus aureus [23]
  Activity: 80%
[24]
  Papp: 0.195 ×10⁻⁶ cm/s

## O=C(O)c1cn(C2CC2)c2c(c1=O)C=C(F)C1N=NC(c3ccccc3F)=CN21 (centres undefined)
Staphylococcus aureus [25]
  Ratio: 32
Staphylococcus aureus [26]
  MIC: 0.25 µg/mL

## O=C(O)c1cn(C2CC2)c2cc(N3CCN(Cc4cccc(CN5CCN(c6ncc7c(=O)c(C(=O)O)cn(C8CC8)c7n6)CC5)c4)CC3)ccc2c1=O
Staphylococcus aureus [21]
  MIC: < 0.03 µg/mL
Staphylococcus aureus [25]
  Ratio: >16

## COC(=O)c1cn(C2CC2)c2cc(N3CCNCC3)ccc2c1=O
Staphylococcus aureus [23]
  Activity: 80%
[24]
  Papp: 0.00797 ×10⁻⁶ cm/s

## O=C(O)c1cn(C2CC2)c2c(Cl)c(N3CCN(Cn4nc(-c5ccccc5O)n(-c5cc(Cl)cc(Cl)c5)c4=S)CC3)c(F)cc2c1=O
[19]
  EC50 at 72 h: 50.5 µM

## O=C(O)c1cn(C2CC2)c2c(c1=O)C=C(F)C1N=NC(c3ccc(F)cc3)=CN21 (centres undefined)
Staphylococcus aureus [25]
  Ratio: 32
Staphylococcus aureus [26]
  MIC: 0.25 µg/mL

## CCO/N=C1\CCN(c2c(F)cc3c(=O)c(C(=O)O)cn(C4CC4)c3c2F)CC1(C)CNC (centres undefined)
Staphylococcus aureus [22]
  MIC: 64 µg/mL (≈ 138 µM)

## NO/N=C(/CN1CCN(c2cc3c(cc2F)c(=O)c(C(=O)O)cn3C2CC2)CC1)c1cccs1
Staphylococcus aureus [11]
  Ratio: 2
Staphylococcus aureus [12]
  Ratio: 2
Staphylococcus aureus [13]
  MIC: 0.19 µg/mL (≈ 0.391 µM)
Staphylococcus aureus [14]
  MIC: 0.19 µg/mL (≈ 0.391 µM)
Staphylococcus aureus [15]
  Ratio: 4
Staphylococcus aureus [16]
  Ratio: 4

## CCn1cc(C(=O)O)c(=O)c2cc(F)c(N3CCN(C/C(=N/O)c4ccc(OC)cc4)CC3)c(F)c21
Staphylococcus aureus [7]
  Ratio: 24
Staphylococcus aureus [21]
  MIC: 0.2 µM

## Cc1c(N2C[C@@H](F)[C@@H](C3(C)CC3)C2)c(F)c(N)c2c(=O)c(C(=O)O)cn([C@@H]3C[C@@H]3F)c12
Staphylococcus aureus [4]
  Activity: 6.33 log10CFU
Staphylococcus aureus [5]
  MIC: 0.125 µg/mL (≈ 0.287 µM)
Staphylococcus aureus [6]
  Activity: 90%

## CCO/N=C1\CCN(c2nc3c(cc2F)c(=O)c(C(=O)O)cn3C2CC2)CC1(C)CNC (centres undefined)
Staphylococcus aureus [22]
  MIC: 64 µg/mL (≈ 144 µM)

## O=C(O)c1cn(C2CC2)c2cc(N3CCNCC3)c(F)cc2c1=O [CIPROFLOXACIN]
Staphylococcus aureus [27]
  MBC: 0.031 µg/mL
Staphylococcus aureus [1]
  MIC: 32 µg/mL (≈ 96.6 µM)
Staphylococcus aureus [28]
  MIC: 0.06 µg/mL
Staphylococcus aureus [21]
  MIC: 0.5 µg/mL
Staphylococcus aureus [2]
  MIC: 0.25 µg/mL (≈ 0.754 µM)
Staphylococcus aureus [29]
  MIC: 64 µg/mL (≈ 193 µM)

## CCn1cc(C(=O)O)c(=O)c2cc(F)c(N3CCNCC3)cc21 [NORFLOXACIN]
Staphylococcus aureus [27]
  MBC: 4 µg/mL
Staphylococcus aureus [13]
  MIC: 0.78 µg/mL (≈ 2.44 µM)
Staphylococcus aureus [14]
  MIC: 0.78 µg/mL (≈ 2.44 µM)
Staphylococcus aureus [8]
  MIC: 8 µg/mL (≈ 25.1 µM)
Staphylococcus aureus [26]
  MIC: < 0.016 µg/mL

## CN[C@H](CC(C)C)C(=O)N[C@H]1C(=O)N[C@@H](CC(N)=O)C(=O)N[C@H]2C(=O)N[C@H]3C(=O)N[C@H](C(=O)N[C@H](C(=O)O)c4cc(O)cc(O)c4-c4cc3ccc4O)[C@H](O)c3ccc(c(Cl)c3)Oc3cc2cc(c3O[C@@H]2O[C@H](CO)[C@@H](O)[C@H](O)[C@H]2O[C@H]2C[C@](C)(N)[C@H](O)[C@H](C)O2)Oc2ccc(cc2Cl)[C@H]1O [VANCOMYCIN]
Staphylococcus aureus [4]
  Activity: 7.99 log10CFU
Staphylococcus aureus [6]
  Activity: 45%
